The results in this text go back to US20080003438A1, “Heterocyclic siloxanes for use in biocidal coatings and materials” (Auburn University, priority 2002, published 2008).

The nature of data set [1]: Chlorine loading of coated, chlorinated surfaces by iodometric/thiosulfate titration. Type of data set: physicochemical. Conditions: for chlorine content of charged textile: oven-cured; for chlorine loading on coated cotton swatches: chlorinated with 5% CLOROX at ambient temperature for 45 minutes. As for the experimental part:
Swatches of Style 400 Bleached 100% Cotton Print Cloth (Testfabrics, Inc.) were treated with 3-triethoxysilylpropyl-5,5-dimethylhydantoin, prepared as described in Example 1, in the following manner. A treatment bath was prepared containing 5.0 g of 3-triethoxysilylpropyl-5,5-dimethylhydantoin, 3.0 g of potassium thiocyanate, 50 mL of ethanol, and 50 mL of water. After 1 hour of equilibration of the bath mixture, the cotton swatches were soaked in the bath for 10 min. After partially drying in air at ambient temperature, the swatches were cured for 1 hour at 95° C. The swatches were then soaked in a 0.5% liquid detergent solution for 15 min, rinsed with tap water, and allowed to dry in air at ambient temperature. […] The swatches were stored in a vacuum desiccator until use.
The siloxane polymer described above was coated onto 100% cotton fabric. This was accomplished by soaking swatches of the material for about 2 minutes at ambient temperature in a bath containing 5 g of the polysiloxane, 70 mL of ethanol, and 40 mL of water. The swatches were cured at 130° C. in air for 20 minutes, then soaked in 1.5% liquid detergent for 15 minutes at ambient temperature, and then rinsed thoroughly with water. […] An iodometric/thiosulfate titration indicated a chlorine loading on the cotton material of about 0.42%.
Finally, a wash test was performed on swatches of cotton containing the monomer 3-triethoxysilylpropyl-5,5-dimethylhydantoin coating and the polysiloxane coating, each chlorinated and unchlorinated, for comparison purposes. Two treatment baths were prepared, one containing an 8% solution of 3-triethoxysilylpropyl-5,5-dimethylhydantoin in a 50% solution of ethanol in water, the other containing an 8% solution of siloxane polymer prepared as described above in a 66.7% solution of ethanol in water. Identical cotton swatches were soaked in the two baths for 2.5 minutes at ambient temperature, cured in air at 130° C. for 20 minutes, soaked in 1.5% liquid detergent at ambient temperature for 15 minutes, rinsed thoroughly with water, and dried in air at 50° C. for 30 minutes. Then one-half of the swatches of each type were chlorinated by soaking them in 5% CLOROX at ambient temperature for 45 minutes. These chlorinated samples were rinsed thoroughly with water and dried in air at 50° C. for 30 minutes to remove all occluded free chlorine. Iodometric/thiosulfate titrations were performed on representative samples to determine initial chlorine loadings. The average chlorine loading for the silane monomer-coated samples was 0.61%; for the siloxane polymer-coated samples, the average chlorine loading was 0.40%. Then all types of coated swatches were subjected to laundry washing cycles using AATCC Test Method 61 (Test 2A Procedure). Samples were evaluated after 5, 10, and 50 washing cycles for retention of the coatings. Those samples not chlorinated before washing were chlorinated by the procedure described above in order to assess how much chlorine could be loaded after variable numbers of washing cycles. Those chlorinated before washing were divided into two groups with half being assessed for chlorine loading without rechlorination, the other half being rechlorinated and then assessed for chlorine loading. Three observations are clearly evident from the data in Table 3. First, both the silane and the siloxane coatings are partially lost upon successive washings. Second, prechlorination reduces the rate of loss, probably due to increasing the hydrophobicity of the surface, thus reducing the rate of hydrolysis loss of the siloxane coatings. Third, the siloxane coating, which is not chlorinated to as high a level as the silane one upon initial chlorination, is lost at a slower rate than is the silane coating. For all of the coatings, at least partial biocidal efficacy would be regenerated upon rechlorination after 50 washing cycles. […]

For another data set, the system named is Staphylococcus aureus. The data set can be described thus: Antimicrobial activity of cotton textiles coated with acyclic silane. Type of data set: cell-based. As for the experimental part:
Cotton textiles were coated with 3-aminopropyltriethoxysilane by exposure to aqueous solutions of 5% of this compound, followed by curing the woven fabric at 100° C. for 60 minutes in air, or by use of a household dryer on high setting for 30 minutes. Swatches of the treated fabric were charged with chlorine, and then challenged with suspensions of Staphylococcus aureus; enumeration of recovery was accomplished using the methods described in Example 11. Chlorine contents of charged oven-cured textiles ranged up to 5000 ppm (5 mg per g of material) immediately after drying, but diminished to 2300 ppm in approximately 14 days at 20° C. Chlorine concentrations in dryer-prepared swatches were never higher than 2500 ppm, even when fresh. Reductions of viable organisms in freshly chlorinated oven-dried swatches were in excess of 4 logs, after as little as 15 minutes of contact. Longer contact times (30 minutes) were required to reach this level of efficacy in dryer-cured textiles.

The test system of data set [2] is S. aureus bacteria (ATCC 6538). Briefly: Biocidal efficacy of chlorinated silane compound in water solution. The class given is cell-based. Conditions: 100.8 mg/L solution, 11.02 mg/L total chlorine, chlorine-demand-free water pH 7, all contact times 5, 10, 30, 60 min, ambient temperature. As for the experimental part:
A 100.8 mg/L solution of the chlorinated silane compound, prepared as described above, containing 11.02 mg/L total chlorine content in chlorine-demand-free water at pH 7 was challenged with S. aureus bacteria (ATCC 6538) for contact times of 5, 10, 30, and 60 min at ambient temperature. Following the contact with the bacteria, further disinfectant action was quenched by adding 0.02 N sodium thiosulfate. Serial dilutions were then plated onto trypticase soy agar, and colony counts were made after 48 hours of incubation at 37° C. No growth was detected on the plates indicating a complete inactivation (>4.9 logs) at all of the contact times. Thus the chlorinated silane compound is biocidal under the conditions tested. Neither lower contact times, nor lower concentrations, were evaluated.

Data set [3] has as its system Escherichia coli (ATCC 2666). The data set can be described thus: Challenge of treated cotton swatches, modified AATCC Method 100. The class given is cell-based. Conditions: contact time interval 60-120 minutes. On the procedure: (§1) Treated cotton swatches were challenged with S. aureus (ATCC 6538) and Escherichia coli (ATCC 2666) at a concentration of between 10^8 and 10^9 CFU/mL in pH 7 phosphate buffer solution using a modified version of AATCC Method 100. The swatches were quenched with 0.02 N sodium thiosulfate solution at contact times of 10, 30, 60, and 120 min. Serial dilutions of the solutions contacting the swatches were plated on nutrient agar, incubated for 48 hours at 37° C., and plate counts were made to determine the presence of viable bacteria. […] The control sample (cotton soaked in 10% bleach, rinsed, and dried) gave only a 0.4 log reduction at 30 minutes. […] The control sample (cotton soaked in 10% bleach, rinsed, and dried) gave a 0 log reduction at 120 minutes.

The next data set has as its system S. aureus (ATCC 6538). The description is as above. The class given is cell-based. Conditions: treated cotton swatches, at 30 minutes. As for the experimental part: as §1

On to `CCO[Si](CCCNCCN1C(=O)NC(C)(C)C1=O)(OCC)OCC.Cl` [3-[2′-(3′-triethoxysilylpropyl)aminoethyl]-5,5-dimethylhydantoin hydrochloride], for which the chlorine loading in data set [1] (cotton swatches, 5% CLOROX 5 minutes) is 0.44%; in data set [1] (sand (Ottawa Sand Standard, 20-30 mesh), 50% CLOROX 15 minutes), 0.11%.

In the case of `CCO[Si](CCCN)(OCC)OCC` [3-aminopropyltriethoxysilane], the “chlorine concentration of charged textile” value in data set [1] (cotton, dryer-prepared swatches, even when fresh) was no more than 2500 ppm. In addition, the “chlorine content of charged textile” value in data set [1] (cotton, after approximately 14 days at 20° C.) is 2300 ppm; in data set [1] (cotton, immediately after drying) it was “up to 5000 ppm”. For the same compound, in the data set with Staphylococcus aureus (dryer-cured cotton textiles), the “contact time required to reach in excess of 4 logs reduction” value came to 30 minutes. Moreover, in the data set with Staphylococcus aureus (freshly chlorinated oven-dried cotton swatches, 15 minutes of contact), the “reduction of viable organisms” value is on record as greater than 4 logs.

Take `CCO[Si](C)(CCCN1C(=O)NC(C)(C)C1=O)OCC` [3-diethoxymethylsilylpropyl-5,5-dimethylhydantoin]: the “chlorine loading on coated cotton swatches” value in data set [1] (cotton) is given as 0.733%.

In the case of `CCO[Si](CCCN1C(=O)C(C)(C)NC1(C)C)(OCC)OCC` [3-triethoxysilylpropyl-2,2,5,5-tetramethylimidazolidin-4-one], the “chlorine loading on coated cotton swatches” value in data set [1] (cotton) turned out to be 0.114%.

Regarding `CO[Si](CCCN1C(=O)N(Cl)C(C)(C)C1=O)(OC)OC` [chlorinated silane compound, 1-chloro-3-trimethoxysilylpropyl-5,5-dimethylhydantoin], in data set [2], the “complete inactivation of S. aureus” value was greater than 4.9 logs.

As to `CCCCCCCCCCCCCCCCCC[N+](C)(C)CCC[Si](OC)(OC)OC.[Cl-]` [quaternary ammonium salt, dimethyloctadecyltrimethoxysilylpropylammonium chloride, reference compound], in data set [3], the “log reduction of E. coli” value is recorded as 2.5 logs. Also, the “log reduction of S. aureus” value with S. aureus (ATCC 6538) is 1.8 log.
